Experimental data reported in ChEMBL document CHEMBL1201862, “PubChem BioAssay data set” (2004).
Activity calls are given as the source filed them.

Experiments:
NADPH oxidase 1 = NADPH oxidase 1 (Homo sapiens, UniProt Q9Y5S8); assay: Late-stage luminescence-based cell-based dose response assay to identify inhibitors of NADPH oxidase 1 (NOX1): Synthesized analogs.; format: functional
[1] = Reduced DLD-1 viability, concentration-response, CellTiter-Glo luminescence (AID 1117352); format: functional
[2] = SNU-C1 cell viability reduction, dose response, CellTiter-Glo luminescence (AID 1117323); format: functional, cell-based
[3] = rise of 2N DNA cells, HeLa – IC50, dose response (AID 1117349); format: functional, cell-based
[4] = cytotoxicity toward Colo320 cells – cell-based, CellTiter-Glo luminescence, IC50, dose response (AID 1117334); format: functional; conditions: COLO 320
cells = format: functional, cell-based; conditions: INS-1E
[5] = CellTiter-Glo luminescence survival assay, SW480 colon tumor line, concentration-response curve, half-maximal inhibitory concentration (AID 1117338); format: functional
[6] = RKO cell viability reduction, dose response, CellTiter-Glo luminescence (AID 1117322); format: functional
[7] = cytotoxicity toward HCT116 cells – cell-based, CellTiter-Glo luminescence, IC50, dose response (AID 1117332); format: functional; conditions: HCT-116
[8] = IC50 of insulin release inhibition, rat insulinoma INS-1E line, 5 mM glucose, cell-based (AID 1117331); format: functional
[9] = rise of 4N DNA cells, HeLa – IC50, dose response (AID 1117351); format: functional, cell-based
[10] = viability loss in Vero cells – cytotoxicity control for Vif-APOBEC3G degradation inhibitor project, dose response (AID 1117358); format: functional; conditions: Vero
[11] = growth inhibition of PfATP4-mutant resistant parasites – NITD609-resistant line, SYBR Green, dry powder, dose response (AID 1159571); format: functional, cell-based;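 also: parasites synchronized at ring stage by sorbitol before testing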
[12] = growth inhibition of yeast DHODH-expressing 3D7 parasites – SYBR Green, dry powder samples, dose response (AID 1159570); format: functional, cell-based;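 also: parasite growth measured after 72 hours of compound exposure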
[13] = P. falciparum Dd2 growth inhibitors, dose response, SYBR Green, cherry-picked samples (AID 1159567); format: functional, cell-based
[14] = Dd2 malaria parasite growth inhibition potency – SYBR Green, dry powder samples, dose response (AID 1159566); format: functional, cell-based;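 also: potency for growth inhibition with lower SYBR green DNA signal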
[15] = Plasmodium falciparum Dd2 Sybr green parasite growth Measured in Cell-Based and Microorganism Combination System Using Plate Reader - 2153-01_Inhibitor_Dose_DryPowder_Activity_Set3.; format: functional
[16] = toxicity to human HepG2 hepatoma cells – cell-based, plate reader, dry powder samples, cytotoxicity control, dose response (AID 1159569); format: functional;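 also: inhibitor potency with signal falling toward the positive control level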
[17] = toxicity to human hepatoma HepG2 cells – cell-based, cherry-picked samples, cytotoxicity control, dose response (AID 1159577); format: functional
Paired box protein Pax-8 = Paired box protein Pax-8 (Homo sapiens, UniProt Q06710); assay: PAX8 transcriptional activity inhibition in RMG-I – RMG-I cells, luciferase, cherry-pick, dose response (AID 687027); format: functional, cell-based;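 also: luciferase reporter driven by Pax8 target thyroperoxidase promoter measured by SteadyGlo luminescence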
[18] = reduced cellular PGC1a acetyl-lysine signal – cell-based, cherry-picked samples, dose response (AID 720514); format: functional;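 also: potency may reflect raised or lowered acetylation signal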
Transthyretin = Transthyretin (Homo sapiens, UniProt P02766); assay: Luminescence-based cell-based high throughput dose response assay to identify activators of Transthyretin (TTR) transcription.; format: functional
[19] = Late-stage results from the probe development effort to identify antagonists of arginine vasopressin receptor 1a (AVPR1a): fluorescence-based cell-based dose response AVPR1a inhibition assay.; format: functional
[20] = Late-stage results from the probe development effort to identify antagonists of arginine vasopressin receptor 1a (AVPR1a): fluorescence-based cell-based dose response OXTR inhibition counterscreen assay.; format: functional
Vasopressin V2 receptor = Vasopressin V2 receptor (Homo sapiens, UniProt P30518); assay: Late-stage results from the probe development effort to identify antagonists of arginine vasopressin receptor 1a (AVPR1a): fluorescence-based cell-based dose response AVPR2 inhibition counterscreen assay.; format: functional
Vasopressin V1b receptor = Vasopressin V1b receptor (Homo sapiens, UniProt P47901); assay: Late-stage results from the probe development effort to identify antagonists of arginine vasopressin receptor 1a (AVPR1a): fluorescence-based cell-based dose response AVPR1b inhibition counterscreen assay.; format: functional
[21] = molecular target: Muscarinic acetylcholine receptor M5 (Homo sapiens, UniProt P08912); assay: potentiation of ACh response at human M5 – cell-based, concentration-response curve, dose response (AID 651878); format: functional
[22] = Potency on glucagon-like peptide 1 release, dose-response in NCI-H716 cell line, half maximal inhibitory concentration (AID 1117344); format: functional, cell-based
[23] = glucagon-like peptide-1 release potency in STC-1, concentration-response, half-maximal inhibitory concentration in the STC-1 line (AID 1117345); format: functional, cell-based
[24] = CCR5-tropic HIV-1 fusion blockers – cell-based, CCR5-tropic Env, dose response (AID 2279); format: functional
[25] = molecular target: T1, Long-chain-fatty-acid--AMP ligase FadD28 (Mycobacterium tuberculosis, UniProt P9WQ59); assay: Fluorescence polarization aasay to screen for inhibitors that compete for the binding of FadD28 to a bisubstrate Measured in Biochemical System Using Plate Reader - 2147-01_Inhibitor_Dose_CherryPick_Activity.; format: functional, Mycobacterium tuberculosis H37Rv
T1 sequence (P9WQ59 whole entry): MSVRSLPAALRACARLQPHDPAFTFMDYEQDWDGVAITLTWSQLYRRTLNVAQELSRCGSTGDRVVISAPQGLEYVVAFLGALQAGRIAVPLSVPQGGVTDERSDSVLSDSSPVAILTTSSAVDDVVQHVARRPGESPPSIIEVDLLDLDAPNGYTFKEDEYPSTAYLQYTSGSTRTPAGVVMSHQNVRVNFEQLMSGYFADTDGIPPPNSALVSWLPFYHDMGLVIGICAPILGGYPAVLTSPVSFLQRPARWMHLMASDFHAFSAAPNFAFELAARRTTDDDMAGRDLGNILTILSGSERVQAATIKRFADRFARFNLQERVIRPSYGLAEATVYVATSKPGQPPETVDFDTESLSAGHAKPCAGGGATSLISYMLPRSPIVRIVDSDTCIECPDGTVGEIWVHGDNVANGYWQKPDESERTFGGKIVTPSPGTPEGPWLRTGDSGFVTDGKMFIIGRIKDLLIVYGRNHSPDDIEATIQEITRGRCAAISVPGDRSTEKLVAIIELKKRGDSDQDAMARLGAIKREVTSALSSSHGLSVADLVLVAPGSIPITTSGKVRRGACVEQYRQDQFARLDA

[26] = molecular target: T2, Histone-lysine N-methyltransferase NSD2 (Homo sapiens, UniProt O96028); format: biochemical
T2 sequence (O96028 whole entry): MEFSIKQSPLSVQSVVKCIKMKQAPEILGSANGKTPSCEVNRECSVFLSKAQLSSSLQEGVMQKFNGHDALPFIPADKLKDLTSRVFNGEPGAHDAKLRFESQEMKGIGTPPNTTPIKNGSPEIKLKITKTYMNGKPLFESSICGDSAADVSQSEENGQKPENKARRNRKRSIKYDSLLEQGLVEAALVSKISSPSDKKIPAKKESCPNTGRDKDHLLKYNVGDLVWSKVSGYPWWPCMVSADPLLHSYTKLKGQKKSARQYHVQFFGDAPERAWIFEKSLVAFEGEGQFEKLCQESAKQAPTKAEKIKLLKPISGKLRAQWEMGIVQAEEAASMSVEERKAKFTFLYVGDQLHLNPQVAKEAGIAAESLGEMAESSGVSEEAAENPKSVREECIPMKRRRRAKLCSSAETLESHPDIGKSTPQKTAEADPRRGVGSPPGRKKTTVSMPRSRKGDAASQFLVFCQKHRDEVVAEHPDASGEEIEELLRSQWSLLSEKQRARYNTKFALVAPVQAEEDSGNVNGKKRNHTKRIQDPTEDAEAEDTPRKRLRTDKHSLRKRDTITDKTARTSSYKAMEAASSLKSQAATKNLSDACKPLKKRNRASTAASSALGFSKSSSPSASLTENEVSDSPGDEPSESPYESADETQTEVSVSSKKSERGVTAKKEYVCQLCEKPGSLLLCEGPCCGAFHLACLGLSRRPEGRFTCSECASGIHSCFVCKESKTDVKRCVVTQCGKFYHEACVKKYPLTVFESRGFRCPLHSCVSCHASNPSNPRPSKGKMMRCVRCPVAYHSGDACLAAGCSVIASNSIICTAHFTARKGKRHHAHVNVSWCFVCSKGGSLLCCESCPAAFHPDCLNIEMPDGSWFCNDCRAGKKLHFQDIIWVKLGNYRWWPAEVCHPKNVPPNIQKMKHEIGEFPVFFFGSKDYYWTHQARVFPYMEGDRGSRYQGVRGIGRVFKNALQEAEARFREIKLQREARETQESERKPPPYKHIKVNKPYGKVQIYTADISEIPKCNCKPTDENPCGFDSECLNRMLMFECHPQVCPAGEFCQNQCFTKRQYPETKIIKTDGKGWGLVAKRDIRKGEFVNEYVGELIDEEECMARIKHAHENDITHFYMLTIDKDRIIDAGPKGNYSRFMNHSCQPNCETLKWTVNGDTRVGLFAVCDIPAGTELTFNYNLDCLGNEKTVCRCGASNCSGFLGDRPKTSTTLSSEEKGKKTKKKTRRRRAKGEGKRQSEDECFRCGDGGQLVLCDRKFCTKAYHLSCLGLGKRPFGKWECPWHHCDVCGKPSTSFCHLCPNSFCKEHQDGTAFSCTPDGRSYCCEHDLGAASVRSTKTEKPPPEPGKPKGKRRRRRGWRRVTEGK

[27] = molecular target: Heat shock protein HSP 90-alpha (Homo sapiens, UniProt P07900); assay: Luminescence-based dose response biochemical high throughput screening assay for inhibitors of the Heat Shock Protein 90 (HSP90). [Related pubchem assays: 1831 (Summary AID.), 1846 (Confirmation screen.), 1789 (Primary screen.)]
[28] = HCT116 cell viability decrease, GSK3B pretreatment – CellTiter-Glo, IC50, dose response (AID 1117339); format: functional; conditions: HCT-116
[29] = cytotoxicity toward HT-29 cells – cell-based, CellTiter-Glo luminescence, IC50, dose response (AID 1117330); format: functional
[30] = molecular target: E3 ubiquitin-protein ligase UHRF1 (Homo sapiens, UniProt Q96T88); assay: Counterscreen for inhibitors of 5-meCpG-binding domain protein 2 (MBD2): TRFRET-based biochemical high throughput dose response assay to identify inhibitors of binding of ubiquitin-like with PHD and ring finger domains 1 (UHRF1) to methylated oligonucleotide.
Sequence of E3 ubiquitin-protein ligase UHRF1 (Q96T88 whole entry, the tested form may be a part): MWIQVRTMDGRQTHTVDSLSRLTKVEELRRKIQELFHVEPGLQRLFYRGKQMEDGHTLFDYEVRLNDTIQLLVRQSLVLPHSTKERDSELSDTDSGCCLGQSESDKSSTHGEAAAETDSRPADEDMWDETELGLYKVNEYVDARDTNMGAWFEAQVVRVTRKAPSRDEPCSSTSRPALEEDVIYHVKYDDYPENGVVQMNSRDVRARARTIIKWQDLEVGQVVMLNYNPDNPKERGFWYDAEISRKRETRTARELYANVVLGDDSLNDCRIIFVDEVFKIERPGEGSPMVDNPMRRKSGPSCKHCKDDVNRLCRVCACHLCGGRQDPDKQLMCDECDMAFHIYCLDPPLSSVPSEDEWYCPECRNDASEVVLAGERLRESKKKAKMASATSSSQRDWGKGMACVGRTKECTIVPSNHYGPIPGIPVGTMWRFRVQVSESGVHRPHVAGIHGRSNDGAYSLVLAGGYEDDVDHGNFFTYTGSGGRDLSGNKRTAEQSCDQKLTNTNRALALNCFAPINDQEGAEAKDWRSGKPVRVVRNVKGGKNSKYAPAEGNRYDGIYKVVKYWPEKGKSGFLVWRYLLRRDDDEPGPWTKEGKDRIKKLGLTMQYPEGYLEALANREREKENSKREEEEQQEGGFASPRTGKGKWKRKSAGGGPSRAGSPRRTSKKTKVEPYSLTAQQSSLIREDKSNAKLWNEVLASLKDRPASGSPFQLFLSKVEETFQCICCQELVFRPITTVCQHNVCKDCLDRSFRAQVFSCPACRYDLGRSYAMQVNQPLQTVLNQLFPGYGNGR

Sequence of NADPH oxidase 1 (Q9Y5S8 whole entry): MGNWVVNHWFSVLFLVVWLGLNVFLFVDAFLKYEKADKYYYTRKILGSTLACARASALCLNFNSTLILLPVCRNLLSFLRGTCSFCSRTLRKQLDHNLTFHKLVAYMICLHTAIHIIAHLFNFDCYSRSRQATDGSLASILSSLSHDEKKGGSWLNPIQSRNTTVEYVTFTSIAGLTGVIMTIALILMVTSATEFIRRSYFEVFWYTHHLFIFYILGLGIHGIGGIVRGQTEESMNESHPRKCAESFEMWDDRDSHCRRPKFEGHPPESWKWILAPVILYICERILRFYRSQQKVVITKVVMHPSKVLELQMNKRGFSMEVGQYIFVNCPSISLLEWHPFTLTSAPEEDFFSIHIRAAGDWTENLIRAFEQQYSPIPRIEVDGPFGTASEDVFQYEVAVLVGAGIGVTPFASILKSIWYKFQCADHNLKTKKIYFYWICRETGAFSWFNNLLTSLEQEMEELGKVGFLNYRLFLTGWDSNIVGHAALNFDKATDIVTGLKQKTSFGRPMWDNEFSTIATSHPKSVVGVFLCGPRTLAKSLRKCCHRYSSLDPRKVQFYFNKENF
Sequence of Paired box protein Pax-8 (Q06710 whole entry): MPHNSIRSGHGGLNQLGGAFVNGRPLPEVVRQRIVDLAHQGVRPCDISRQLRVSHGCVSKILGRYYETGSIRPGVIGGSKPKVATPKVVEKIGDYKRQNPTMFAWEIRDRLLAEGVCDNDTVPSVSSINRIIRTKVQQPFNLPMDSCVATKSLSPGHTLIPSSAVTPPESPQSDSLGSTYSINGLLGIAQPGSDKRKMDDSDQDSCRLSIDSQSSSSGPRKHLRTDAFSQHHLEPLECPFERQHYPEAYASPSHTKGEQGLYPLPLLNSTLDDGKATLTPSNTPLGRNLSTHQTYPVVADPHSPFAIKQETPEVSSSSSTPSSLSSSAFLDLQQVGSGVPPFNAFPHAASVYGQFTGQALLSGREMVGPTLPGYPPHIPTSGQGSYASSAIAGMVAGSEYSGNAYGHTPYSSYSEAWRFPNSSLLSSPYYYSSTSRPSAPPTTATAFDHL
Sequence of Muscarinic acetylcholine receptor M5 (P08912 whole entry): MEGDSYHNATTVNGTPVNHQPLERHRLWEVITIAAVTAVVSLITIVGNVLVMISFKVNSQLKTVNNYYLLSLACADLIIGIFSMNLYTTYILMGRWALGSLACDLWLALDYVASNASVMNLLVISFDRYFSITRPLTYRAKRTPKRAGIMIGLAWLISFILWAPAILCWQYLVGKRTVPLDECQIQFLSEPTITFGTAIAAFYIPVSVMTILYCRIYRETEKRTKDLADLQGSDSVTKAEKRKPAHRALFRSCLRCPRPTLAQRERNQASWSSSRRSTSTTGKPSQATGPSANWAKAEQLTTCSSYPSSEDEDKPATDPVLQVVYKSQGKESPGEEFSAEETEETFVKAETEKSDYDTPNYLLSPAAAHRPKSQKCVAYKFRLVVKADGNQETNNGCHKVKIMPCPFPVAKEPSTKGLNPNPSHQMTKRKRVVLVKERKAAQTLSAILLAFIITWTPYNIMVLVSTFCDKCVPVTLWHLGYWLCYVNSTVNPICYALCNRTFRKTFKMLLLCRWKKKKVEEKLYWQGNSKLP
Sequence of Vasopressin V2 receptor (P30518 whole entry): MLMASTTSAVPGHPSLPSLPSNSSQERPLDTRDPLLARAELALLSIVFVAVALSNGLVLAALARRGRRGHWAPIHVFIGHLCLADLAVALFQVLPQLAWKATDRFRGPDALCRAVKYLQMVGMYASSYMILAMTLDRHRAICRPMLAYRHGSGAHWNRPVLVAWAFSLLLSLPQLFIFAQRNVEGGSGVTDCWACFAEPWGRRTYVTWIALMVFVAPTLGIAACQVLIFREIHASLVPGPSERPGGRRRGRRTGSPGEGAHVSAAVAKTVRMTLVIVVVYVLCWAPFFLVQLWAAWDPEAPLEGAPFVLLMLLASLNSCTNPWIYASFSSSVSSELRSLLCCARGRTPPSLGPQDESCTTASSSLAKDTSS
Sequence of Vasopressin V1b receptor (P47901 whole entry): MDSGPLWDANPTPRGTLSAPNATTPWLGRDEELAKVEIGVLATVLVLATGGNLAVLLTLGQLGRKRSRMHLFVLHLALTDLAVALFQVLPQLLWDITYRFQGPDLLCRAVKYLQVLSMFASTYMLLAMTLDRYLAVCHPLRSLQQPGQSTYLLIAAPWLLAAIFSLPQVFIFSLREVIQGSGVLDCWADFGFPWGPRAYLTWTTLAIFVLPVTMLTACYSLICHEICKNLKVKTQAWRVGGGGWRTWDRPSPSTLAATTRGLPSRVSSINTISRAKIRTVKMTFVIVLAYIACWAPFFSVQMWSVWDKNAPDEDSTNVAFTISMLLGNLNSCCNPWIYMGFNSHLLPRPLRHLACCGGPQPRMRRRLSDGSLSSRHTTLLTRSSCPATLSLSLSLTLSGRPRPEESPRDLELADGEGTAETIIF

CC(=NNc1cccc(C(=O)O)c1)c1ccc2c(c1)Nc1ccccc1S2
IC50 (NADPH oxidase 1): 305 nM (active)

CN(C)CCOC(c1ccccc1)c1ccc(Br)cc1 (stereo not drawn) [BROMODIPHENHYDRAMINE]
IC50 [1]: > 20 µM (inactive) | IC50 [2]: 3.1 µM (active) | IC50 [3]: > 10 µM (inactive) | IC50 [4]: > 20 µM (inactive) | IC50 (cells): > 33.3 µM (inactive) | IC50 [5]: > 20 µM (inactive) | IC50 [6]: > 20 µM (inactive) | IC50 [7]: > 20 µM (inactive) | IC50 [8]: 2.77 µM (active) | IC50 [9]: > 10 µM (inactive)

CC1CCCCN1C(=O)c1ccc(S(=O)(=O)N2CCCCC2C)cc1 (stereo not drawn)
CC50 [10]: > 40 µM (active)

CCCNC(=O)N1[C@H](C#N)[C@H](c2ccc(-c3cccc(OC)c3)cc2)[C@H]1CO
AC50 [11]: 27.8 nM (active) | AC50 [12]: 10.4 µM (active) | AC50 [13]: < 300 nM (active) | AC50 [14]: 15.4 nM (active) | AC50 [15]: 75.1 nM (active) | AC50 [16]: > 100 µM (inactive)

O=C(Nc1ccc(C(F)(F)F)cc1)N1C[C@@H]2N[C@H](C1)[C@@H]2c1ccc(-c2cccc(F)c2)cc1
AC50 [17]: 3.52 µM (active) | AC50 [13]: 3450 nM (active) | AC50 (Paired box protein Pax-8): 22.4 µM (active) | AC50 [18]: 4.04 µM (active)

Cc1cccc(N(C)c2ncnc3onc(-c4ccc(F)cc4)c23)c1C
EC50 (Transthyretin): > 167 µM (inactive)

COc1ccc(N(CC2CC2)C(=O)N2CCN(c3cc(Cl)ccc3C)CC2)cc1
IC50 [19]: 36.3 nM (active) | IC50 [20]: 250 nM (active) | IC50 (Vasopressin V2 receptor): 11.3 µM (inactive) | IC50 (Vasopressin V1b receptor): 16.6 µM (inactive)

O=C1C(=O)N(CCOc2ccc(C(F)(F)F)cc2)c2ccc(OC(F)(F)F)cc21
EC50 [21]: 360 nM (active)

O=C(O)c1cc(/N=N/c2ccc(O)c(C(=O)O)c2)ccc1O [OLSALAZINE]
IC50 [22]: > 40 µM (inactive) | IC50 [23]: 9.54 µM (inactive)

COc1ccc(C(=O)Oc2ccc(/C=N/Nc3ccc(Cl)c(C(=O)O)c3)cc2OC)cc1
IC50 [24]: 7.02 µM (active) | AC50 [25]: 99.3 µM (active) | AC50 [26]: > 20 µM (inactive) | IC50 [27]: 1.5 µM (active)

Clc1ccc(C(Cn2ccnc2)OCc2ccsc2Cl)c(Cl)c1 (stereo not drawn) [TIOCONAZOLE]
IC50 [1]: > 20 µM (inactive) | IC50 [2]: 2.18 µM (active) | IC50 [4]: 5.23 µM (inactive) | IC50 [5]: > 20 µM (inactive) | IC50 [28]: 2.84 µM (active) | IC50 [6]: 5.25 µM (inactive) | IC50 [7]: 4.07 µM (active) | IC50 [29]: > 20 µM (inactive)

COc1ccc2c(=O)c3c(=O)n(-c4ccccc4)c(-c4ccc(C)cc4)nc3oc2c1
IC50 [30]: > 541 nM (active)
